The record followed here is patent US20220324835A1 (Nurix Therapeutics, Inc., priority 2018, published 2022).

Holding throughout (assay type): cell-based
The test system of experiment [1] is primary human total T-cells. The experiment can be described thus: T-cell activation assessed by cell proliferation (Cell Trace Violet). The essentials:
(§1)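 Primary human T-cells (>95% CD3+, negative selection from PBMC) were pre-incubated with inhibitor (e.g. 10, 1.11, 0.123 μM; DMSO <0.1%) for 1 h at 37 °C. They were then stimulated 48 h with plate-bound OKT3 (coated at 10 μg/mL), alone or with 5 μg/mL soluble anti-CD28. Results are fold change over uninhibited, identically stimulated cells.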

Experiment [2] relates to primary human total T-cells. The experiment in a line: T-cell activation assessed by cytokine secretion (GM-CSF, IFNγ, TNFα). The method in brief:
as §1

For a further experiment, the system named is anergic human T-cells. The experiment in a line: Anergic T-cell activation assessed by IFNγ secretion (ionomycin-induced anergy). To be noted: anergic T-cells re-challenged with anti-CD3 and anti-CD28 for 24 hours, read-out: IFNγ Fold change from baseline. The essentials:
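Human primary T-cells (>95% CD3+) were activated with anti-CD3/anti-CD28 for 2 days, rested 3 days, then made anergic with ionomycin for 18-24 h. Compound (e.g. 10, 1.11, 0.37 μM) was added for 1 h before 24 h anti-CD3/CD28 re-challenge; IFNγ by ELISA or Luminex as fold over untreated anergic baseline, binned A ≤2.50, B 2.51-4.00, C >4.01.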

The mark [3] stands for this setting: CD3/CD28 stimulation, CD4 T-cells, read-out: % CP (cell proliferation) (CD4).
[4] abbreviates: CD3/CD28 stimulation, CD8 T-cells, read-out: % CP (cell proliferation) (CD8).
Where [5] appears, read: CD3 alone stimulation, CD8 T-cells, read-out: % CP (cell proliferation) (CD8).
[6] abbreviates: CD3/CD28 stimulation, read-out: GM-CSF secretion.
[7] abbreviates: CD3/CD28 stimulation, read-out: IFNγ secretion.
[8] abbreviates: CD3/CD28 stimulation, read-out: TNFα secretion.
[9] abbreviates: CD3 alone stimulation, read-out: GM-CSF secretion.
Where [10] appears, read: CD3 alone stimulation, read-out: IFNγ secretion.
Setting [11] is: CD3 alone stimulation, read-out: TNFα secretion.

Turning to `C[C@H](Sc1nncn1C)c1cccc(NC(=O)c2cc(C(=O)N3CC[C@H](O)C3)ccn2)c1` [Compound 140, 4-[[(3S)-3-hydroxypyrrolidin-1-yl]carbonyl]-N-[3-[(1S)-1-[(4-methyl-4H-1,2,4-triazol-3-yl)sulfanyl]ethyl]phenyl]pyridine-2-carboxamide], the fold induction at 1.11 µM in experiment [1] (setting [3]) was more than 4; in experiment [1] (setting [4]), more than 4; in experiment [1] (setting [5]), more than 4; in experiment [2] (setting [6]), 2.01 to 4; in experiment [2] (setting [7]), 2.01 to 3; in experiment [2] (setting [8]), 2.01 to 4. Moreover, the fold induction at 1.11 µM in experiment [2] (setting [9]) was 2.01 to 4; in experiment [2] (setting [10]), 3.01 to 4; in experiment [2] (setting [11]) it was 1.51 to 2; with anergic human T-cells it was not above 2.5. Further, the fold induction at 10 µM in experiment [1] (setting [3]) was more than 4; in experiment [1] (setting [4]), more than 4; in experiment [1] (setting [5]) it was more than 4; in experiment [2] (setting [6]) it was more than 4; in experiment [2] (setting [7]), more than 4; in experiment [2] (setting [8]) it was 2.01 to 4. Also, the fold induction at 10 µM in experiment [2] (setting [9]) was 2.01 to 4; in experiment [2] (setting [10]) it was more than 4; in experiment [2] (setting [11]), 2.01 to 4; in the experiment with anergic human T-cells, 2.51 to 4. Further, the fold induction at 0.37 µM in the experiment on anergic human T-cells is not above 2.5.
`C[C@H](Cc1nncn1C)c1cccc(NC(=O)c2cccc(CCO)n2)c1` [Compound 202, 6-(2-hydroxyethyl)-N-[3-[(2R)-1-(4-methyl-4H-1,2,4-triazol-3-yl)propan-2-yl]phenyl]pyridine-2-carboxamide]: the fold induction at 1.11 µM in experiment [1] (setting [3]) is less than 2; in experiment [1] (setting [4]) it was less than 2; in experiment [1] (setting [5]), less than 2; in experiment [2] (setting [6]), not above 1.5; in experiment [2] (setting [7]) it was less than 2; in experiment [2] (setting [8]), not above 1.5. Also, the fold induction at 1.11 µM is not above 1.5 in experiment [2] (setting [9]), less than 2 in experiment [2] (setting [10]), not above 1.5 in experiment [2] (setting [11]) and not above 2.5 in the experiment on anergic human T-cells. Further, the fold induction at 10 µM is 3.01 to 4 in experiment [1] (setting [3]); 2.01 to 3 in experiment [1] (setting [4]); less than 2 in experiment [1] (setting [5]); 1.51 to 2 in experiment [2] (setting [6]); more than 4 in experiment [2] (setting [7]); 1.51 to 2 in experiment [2] (setting [8]). For the same compound, the fold induction at 10 µM is 1.51 to 2 in experiment [2] (setting [9]), less than 2 in experiment [2] (setting [10]), not above 1.5 in experiment [2] (setting [11]) and 2.51 to 4 in the experiment on anergic human T-cells. The fold induction at 0.37 µM with anergic human T-cells was not above 2.5.
Take `C[C@H](Cc1nncn1C)c1cccc(N2Cc3c(ccnc3C3CC3)C2=O)c1` [Compound 257, 4-cyclopropyl-2-[3-[(1R)-1-methyl-2-(4-methyl-1,2,4-triazol-3-yl)ethyl]phenyl]-3H-pyrrolo[3,4-c]pyridin-1-one]: the fold induction at 1.11 µM in experiment [1] (setting [3]) was 2.01 to 3; in experiment [1] (setting [4]), less than 2; in experiment [1] (setting [5]) it was less than 2; in experiment [2] (setting [6]), 2.01 to 4; in experiment [2] (setting [7]), less than 2; in experiment [2] (setting [8]), 1.51 to 2. For the same compound, the fold induction at 1.11 µM was 1.51 to 2 in experiment [2] (setting [9]), less than 2 in experiment [2] (setting [10]), not above 1.5 in experiment [2] (setting [11]) and not above 2.5 in the experiment on anergic human T-cells. The fold induction at 10 µM in experiment [1] (setting [3]) was more than 4; in experiment [1] (setting [4]) it was 3.01 to 4; in experiment [1] (setting [5]) it was 3.01 to 4; in experiment [2] (setting [6]), more than 4; in experiment [2] (setting [7]) it was 2.01 to 3; in experiment [2] (setting [8]), 2.01 to 4. The fold induction at 10 µM in experiment [2] (setting [9]) is 2.01 to 4; in experiment [2] (setting [10]), 2.01 to 3; in experiment [2] (setting [11]), not above 1.5; in the experiment on anergic human T-cells, 2.51 to 4. Moreover, the fold induction at 0.37 µM in the experiment with anergic human T-cells was not above 2.5.
With `Cn1cnnc1[C@@H]1C[C@@H]1c1cccc(N2Cc3c(cccc3C(F)(F)F)C2=O)c1` [Compound 282, 2-(3-((1S,2R)-2-(4-methyl-4H-1,2,4-triazol-3-yl)cyclopropyl)phenyl)-4-(trifluoromethyl)isoindolin-1-one], the fold induction at 1.11 µM in experiment [1] (setting [3]) is less than 2; in experiment [1] (setting [4]) it was less than 2; in experiment [1] (setting [5]), less than 2; in experiment [2] (setting [6]) it was 1.51 to 2; in experiment [2] (setting [7]) it was less than 2; in experiment [2] (setting [8]), not above 1.5. The fold induction at 1.11 µM was not above 1.5 in experiment [2] (setting [9]), less than 2 in experiment [2] (setting [10]), not above 1.5 in experiment [2] (setting [11]) and not above 2.5 in the experiment on anergic human T-cells. Also, the fold induction at 10 µM was more than 4 in experiment [1] (setting [3]); 2.01 to 3 in experiment [1] (setting [4]); 3.01 to 4 in experiment [1] (setting [5]); 2.01 to 4 in experiment [2] (setting [6]); 2.01 to 3 in experiment [2] (setting [7]); 2.01 to 4 in experiment [2] (setting [8]). For the same compound, the fold induction at 10 µM is 2.01 to 4 in experiment [2] (setting [9]), 2.01 to 3 in experiment [2] (setting [10]), not above 1.5 in experiment [2] (setting [11]) and not above 2.5 in the experiment on anergic human T-cells. The fold induction at 0.37 µM in the experiment with anergic human T-cells was not above 2.5.
For the compound `C[C@H](Cc1nncn1C)c1ccnc(NC(=O)c2cccc(C(F)(F)F)n2)c1` [Compound 302, (R)-N-(4-(1-(4-methyl-4H-1,2,4-triazol-3-yl)propan-2-yl)pyridin-2-yl)-6-(trifluoromethyl)picolinamide], in the experiment with anergic human T-cells, the fold induction at 0.37 µM was not above 2.5, the fold induction at 1.11 µM is not above 2.5 and the fold induction at 10 µM was not above 2.5.
Regarding `C[C@H](Cc1nncn1C)c1cccc(NC(=O)c2nc(C(F)(F)F)c[nH]2)c1` [Compound 326, (R)-N-(3-(1-(4-methyl-4H-1,2,4-triazol-3-yl)propan-2-yl)phenyl)-4-(trifluoromethyl)-1H-imidazole-2-carboxamide], the fold induction at 1.11 µM in experiment [1] (setting [3]) is 2.01 to 3; in experiment [1] (setting [4]), 2.01 to 3; in experiment [1] (setting [5]), 2.01 to 3; in experiment [2] (setting [6]), 1.51 to 2; in experiment [2] (setting [7]), less than 2; in experiment [2] (setting [8]), not above 1.5. For the same compound, the fold induction at 1.11 µM was 1.51 to 2 in experiment [2] (setting [9]), less than 2 in experiment [2] (setting [10]), not above 1.5 in experiment [2] (setting [11]) and not above 2.5 in the experiment on anergic human T-cells. For the same compound, the fold induction at 10 µM in experiment [1] (setting [3]) was more than 4; in experiment [1] (setting [4]), 3.01 to 4; in experiment [1] (setting [5]), more than 4; in experiment [2] (setting [6]), 2.01 to 4; in experiment [2] (setting [7]), 2.01 to 3; in experiment [2] (setting [8]) it was 2.01 to 4. Also, the fold induction at 10 µM in experiment [2] (setting [9]) is 2.01 to 4; in experiment [2] (setting [10]), 2.01 to 3; in experiment [2] (setting [11]), 1.51 to 2; in the experiment with anergic human T-cells, 2.51 to 4. The fold induction at 0.37 µM with anergic human T-cells is not above 2.5.
As to `Cn1cnnc1[C@@H]1C[C@@H]1c1cccc(N2Cc3c(ccnc3C(F)(F)F)C2=O)c1` [Compound 369, 2-{3-[(1S,2R)-2-(4-methyl-4H-1,2,4-triazol-3-yl)cyclopropyl]phenyl}-4-(trifluoromethyl)-1H,2H,3H-pyrrolo[3,4-c]pyridin-1-one], the fold induction at 1.11 µM in experiment [1] (setting [3]) is less than 2; in experiment [1] (setting [4]), less than 2; in experiment [1] (setting [5]) it was less than 2; in experiment [2] (setting [6]), not above 1.5; in experiment [2] (setting [7]), less than 2; in experiment [2] (setting [8]), not above 1.5. Moreover, the fold induction at 1.11 µM is not above 1.5 in experiment [2] (setting [9]), less than 2 in experiment [2] (setting [10]), not above 1.5 in experiment [2] (setting [11]) and not above 2.5 with anergic human T-cells. Moreover, the fold induction at 10 µM is more than 4 in experiment [1] (setting [3]); 2.01 to 3 in experiment [1] (setting [4]); less than 2 in experiment [1] (setting [5]); 2.01 to 4 in experiment [2] (setting [6]); less than 2 in experiment [2] (setting [7]); 2.01 to 4 in experiment [2] (setting [8]). The fold induction at 10 µM in experiment [2] (setting [9]) is not above 1.5; in experiment [2] (setting [10]) it was less than 2; in experiment [2] (setting [11]), 1.51 to 2; with anergic human T-cells it was 2.51 to 4. For the same compound, the fold induction at 0.37 µM in the experiment on anergic human T-cells is not above 2.5.
